Test results taken from PubChem BioAssay (NCI).
“And” between values parts separate entries of the source, which are not always exact repeats. Equal entries are not always repeated.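 96-well plates; 48 h exposure; 5 concentrations. Endpoints by linear interpolation between flanking doses. Not reached: highest tested concentration assigned. GI50 is the concentration that inhibits growth by half. TGI marks complete inhibition of growth.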

What was measured:
Experiment in all cases: inhibition of tumour cell growth, NCI panel, 48 h
786-0 renal = test system: 786-0 renal
CAKI-1 renal = test system: CAKI-1 renal
CCRF-CEM leukemia = test system: CCRF-CEM leukemia
HOP-62 NSCLC = test system: HOP-62 NSCLC
KM12 colon = test system: KM12 colon
MALME-3M melanoma = test system: MALME-3M melanoma
NCI-H522 lung = test system: NCI-H522 lung
RPMI-8226 leukemia = test system: RPMI-8226 leukemia
RXF 393 renal = test system: RXF 393 renal
SK-MEL-28 melanoma = test system: SK-MEL-28 melanoma

SMILES	GI50 (786-0 renal)	TGI (786-0 renal) [µM]	GI50 (CAKI-1 renal)	TGI (CAKI-1 renal) [µM]	GI50 (CCRF-CEM leukemia)	TGI (CCRF-CEM leukemia) [µM]	GI50 (HOP-62 NSCLC)	TGI (HOP-62 NSCLC) [µM]	GI50 (KM12 colon)	TGI (KM12 colon)	GI50 (MALME-3M melanoma)	TGI (MALME-3M melanoma) [µM]	GI50 (NCI-H522 lung)	GI50 (RPMI-8226 leukemia)	GI50 (RXF 393 renal)	TGI (RXF 393 renal) [µM]	GI50 (SK-MEL-28 melanoma)	TGI (SK-MEL-28 melanoma) [µM]	TGI (RPMI-8226 leukemia)	TGI (NCI-H522 lung) [µM]
Cc1cc(Cl)ccc1Nc1nc(C(F)(F)F)ccc1C(=O)N/N=C/c1c(Cl)cccc1Cl	0.292 µM	1.08	0.0557 µM	3.28	0.107 µM	> 100	0.876 µM	> 27.2	0.254 µM	1.92 µM	0.494 µM	2.5	0.306 µM	0.194 µM	2.04 µM	> 100	0.806 µM	> 100		
COc1cc([C@@H]2c3cc4c(cc3[C@H](O)[C@H]3COC(=O)[C@@H]23)OCO4)cc(OC)c1OC	0.504 µM and 0.332 µM	> 100	0.448 µM and 0.258 µM	> 35.8	0.374 µM and 0.302 µM	> 100	0.533 µM and 0.226 µM	> 100	0.343 µM and 0.158 µM	> 8.5 µM and 0.967 µM	1.11 µM and 0.169 µM	> 100	0.244 µM and 0.281 µM	0.566 µM and 0.3 µM	0.211 µM and 0.316 µM		0.561 µM and 0.374 µM	> 100	> 10 µM and 1.37 µM	
O=c1[nH]c(C2CCCCC2)nc2cc(Cl)ccc12		> 100		> 100						> 100 µM		> 100				> 100		> 100	> 100 µM	> 100
COC(=O)/C(Cl)=C1/CC1COCc1ccccc1 (configuration not stated)		42.2		52.4		43.5		> 100		77.4 µM		83.1				37.8		47.4	58.3 µM	40.5
COc1cc2c3c(n(CCCN4CCOCC4)c(=O)c2cc1OC)-c1cc2c(cc1C3=O)OCO2	0.689 µM	20.3	0.52 µM	14.6	0.0934 µM	3.34	1.86 µM	55.7	32.4 µM	> 100 µM	6.6 µM	84.5	3.97 µM	0.608 µM		> 66.6	> 76.9 µM	> 100	16.8 µM	> 100
CCOC(=O)C1=C(N)Oc2cc(OC)ccc2C1c1ccc(F)c(F)c1 (configuration not stated)	3.45 µM	16.8			2.26 µM	19.7	2.13 µM	19.4	0.637 µM	15.9 µM	10.3 µM	24.1	0.498 µM	2.73 µM	1.55 µM	8.76	6.44 µM	21.9	18.2 µM	10.2
Clc1cccc(Cc2cn3cc(-c4ccccc4)nc3s2)c1	26.7 µM	> 100	2.68 µM	> 100	43 µM	> 100	9.1 µM	40.5	1.99 µM	> 100 µM	21.4 µM	> 100		7.4 µM	15.1 µM	40.4	61.5 µM	> 100	> 100 µM	
CNC(=S)N/N=C(/C)CCC/C(C)=N/NC(=S)NC		> 100		> 100				> 100		> 100 µM		> 100				> 50.3		> 100	> 100 µM	> 100
CC(C)(C)C1CCN(C(=O)c2ccccc2)CC1		> 100				> 100		> 100		> 100 µM		> 100				> 100			> 100 µM	> 100
CC(=O)/C=C/c1ccc(N(C)Cc2ccc(C(C)(C)C)cc2)cc1	155 µM	338			164 µM	903	194 µM	550	115 µM	317 µM	138 µM	284	128 µM	53.9 µM	131 µM	272	134 µM	279	237 µM	310
NS(=O)(=O)c1ccc(NCc2cnc3ccccc3c2)cc1		> 100		> 100				> 100		> 100 µM		> 100				> 100		> 100	> 100 µM	> 100
COc1ccc(/C=C/C(=O)c2ccc(NC(=O)CSc3nnc(-c4cc(OC)c(OC)c(OC)c4)o3)cc2)cc1	1.7 µM	3.36			1.84 µM	4.56	2.13 µM	4.53	1.77 µM	3.4 µM	1.68 µM	3.45	1.55 µM	1.73 µM	1.74 µM	3.54	1.74 µM	3.4	4.31 µM	3.22
COc1cc([C@@H]2c3cc4c(cc3[C@@H](NC(=O)c3ccc([N+](=O)[O-])cc3)C3COC(=O)[C@@H]32)OCO4)cc(OC)c1O (some centres not stated)		1.4		8.42				1.12		4.19 µM		4.89				34.8		89	3.62 µM	2.09
COc1ccc(/C=C2\CCCC3=C2N=C2SC=NN2C3c2ccc(OC)c(OC)c2)cc1OC (configuration not stated)	25.3 µM	> 100	7.43 µM	> 100	6.16 µM	> 100	24.3 µM	> 100	11.8 µM	> 100 µM	22.6 µM	78.7	17.9 µM		4.91 µM	24.3	19.3 µM	> 100		> 100
C[C@H]1[C@H](C)CC[C@]2(C(=O)O)CC[C@]3(C)C(=CC[C@@H]4[C@@]5(C)CC[C@H](OC(=O)/C=C\c6ccc(O)cc6)C(C)(C)[C@@H]5CC[C@]43C)[C@H]12	3.22 µM	16	3.71 µM	15.6			2.26 µM	12.8			2.51 µM	13.2	5.58 µM	1.8 µM	1.52 µM	6.94	18 µM	57	10.3 µM	> 100
FC(F)(F)c1ccccc1C=NC12CC3CC(CC(C3)C1)C2		> 100		> 100				> 100		> 100 µM		> 100				> 100		> 100	> 100 µM	
